# Test system: human T cells
# Experiment: Human T cell activation assay (anti-CD3 plus peptide, cytokine secretion)
# Type: cell-based
# Details: Table 10; combinatorial library variants of SEQ ID NO:1
# Method: FIGS. 11 and 12 show 150 peptide variants of the SG-3-0020 1-29 aa N-terminal+middle region, derived from a combinatorial phage display library, were tested for activation potential of human T cells. […] Increase in cytokine secretion was concordant in 3 donors.
# For example, PBMCs were obtained from individual human donors.
# T-cell activation was also determined as described previously (see above and International Application No. PCT/US2020/012431). […] Separate N-, MID, and C-terminal fragments lose activity. The data support that both N- and middle region are minimally required for binding and activation to T cells.
row,Sequence,mean_ES_IFN-γ
1,MLSGAKGKTHDHYWGGRMRPPPWHDWRGS [SEQ ID NO: 22],1.134
2,MLSTAKGKTHDHWGGGRMRPPPWHDWRFS [SEQ ID NO: 2],1.408
3,MPSAAKGKWHDHYPGGRMRDPKWHDWRFS [SEQ ID NO: 8],1.282
4,MPSAAKGKWHDHYPSGRMRPPPWHDWRAR [SEQ ID NO: 12],1.216
5,MPSAAKTKWHDHYPGGRMRPPPWHDWRGR [SEQ ID NO: 16],1.186
6,MPSAAKTKWHDHYPSGRMRPPPWHDWRGR [SEQ ID NO: 28],1.071
7,MPSGAKGKTHDHYGGGRMRPPPWHDWRFS [SEQ ID NO: 13],1.216
8,MSSGAKGKWHDHYPSGRMRPPPWHDWRFS [SEQ ID NO: 3],1.384
9,MVSTAKGKTHDHYPSGRYRPPPWHDWRFS [SEQ ID NO: 29],1.052
10,PVSAAKGKWHDHNWSGRMRPPPWHDWRAR [SEQ ID NO: 18],1.169
11,VTSTAKGKTHDHNWSGRYRPPPWHDWRAR [SEQ ID NO: 9],1.28
12,WASGAKGKWHDHYGGGRYRDPGWHDWRGS [SEQ ID NO: 20],1.135
13,WGSAAKGKTHDHWPSGRHRDPPWHDWRVR [SEQ ID NO: 31],1.044
14,WGSAAKGKTHDHWPSGRYRDPKWHDWRVS [SEQ ID NO: 21],1.134
15,WGSAAKGKTHDHYGSGRYRDPPWHDWRAR [SEQ ID NO: 32],1.038
16,WGSGAKGKTHDHWGSGRWRDPGWHDWRGS [SEQ ID NO: 5],1.324
17,WPSAAKGKTHDHNPSGRMRPPPWHDWRFS [SEQ ID NO: 26],1.078
18,WPSGAKGKWHDHYPGGRMRPPPWHDWRFS [SEQ ID NO: 4],1.351

# Same assay, conditions: Table 11; 150 combinatorial library variants of SEQ ID NO:1
row,Sequence,mean_ES_IFN-γ
1,MGSGAKGKTHDHWPSGRMRPPPWHDWRVS [SEQ ID NO: 268],0.8466
2,MGSGAKTKTHDHYPGGRYRPPPWHDWRVS [SEQ ID NO: 276],0.8105
3,MGSGAKTKWHDHWPSGRMRPPPWHDWRFS [SEQ ID NO: 284],0.7374
4,MLSAAKGKTHDHYPSGRYRPPPWHDWRAR [SEQ ID NO: 269],0.8464
5,MLSAAKTKTHDHWGSGRMRDPPWHDWRVS [SEQ ID NO: 351],−0.1331
6,MLSGAKGKTHDHYWGGRMRPPPWHDWRGS [SEQ ID NO: 22],1.134
7,MLSGAKTKTHDHNPSGRMRDPPWHDWRVR [SEQ ID NO: 293],0.7047
8,MLSTAKGKTHDHWGGGRMRPPPWHDWRFS [SEQ ID NO: 2],1.408
9,MLSTAKGKTHDHYGGGRMRPPPWHDWRFS [SEQ ID NO: 249],0.9561
10,MLSTAKGKTHDHYWGGRMRPPPWHDWRFS [SEQ ID NO: 292],0.7049
11,MPSAAKGKTHDHNGGGRMRPPPWHDWRFS [SEQ ID NO: 311],0.5631
12,MPSAAKGKTHDHYPSGRMRPPPWHDWRGR [SEQ ID NO: 333],0.3234
13,MPSAAKGKTHDHYWSGRMRPPPWHDWRVS [SEQ ID NO: 246],0.9753
14,MPSAAKGKWHDHYGSGRYRPPPWHDWRVR [SEQ ID NO: 326],0.43
15,MPSAAKGKWHDHYPGGRMRDPKWHDWRFS [SEQ ID NO: 8],1.282
16,MPSAAKGKWHDHYPSGRMRPPPWHDWRAR [SEQ ID NO: 12],1.216
17,MPSAAKTKWHDHNWSGRMRPPPWHDWRAR [SEQ ID NO: 270],0.8446
18,MPSAAKTKWHDHYPGGRMRPPPWHDWRGR [SEQ ID NO: 16],1.186
19,MPSAAKTKWHDHYPSGRMRPPPWHDWRGR [SEQ ID NO: 28],1.071
20,MPSGAKGKTHDHYGGGRMRPPPWHDWRFS [SEQ ID NO: 13],1.216
21,MPSGAKGKWHDHYGGGRMRDPGWHDWRGS [SEQ ID NO: 317],0.5191
22,MPSTAKGKWHDHNPSGRMRPPPWHDWRGR [SEQ ID NO: 277],0.7934
23,MSSAAKGKTHDHNWSGRYRPPPWHDWRVR [SEQ ID NO: 242],0.9993

row,Sequence,mean_ES_IFN-γ
1,MSSGAKGKWHDHNWGGRMRDPGWHDWWGS [SEQ ID NO: 301],0.6348
2,MSSGAKGKWHDHYGSGRHRPPPWHDWRVR [SEQ ID NO: 243],0.9926
3,MSSGAKGKWHDHYPSGRMRPPPWHDWRFS [SEQ ID NO: 3],1.384
4,MSSGAKTKTHDHYPSGRMRPPPWHDWRAR [SEQ ID NO: 303],0.6184
5,MVSAAKTKTHDHNGGGRMRPPPWHDWRFS [SEQ ID NO: 258],0.9135
6,MVSTAKGKTHDHYGGGRYRPPPWHDWRAR [SEQ ID NO: 266],0.8498
7,MVSTAKGKTHDHYGSGRYRPPPWHDWRGS [SEQ ID NO: 340],0.276
8,MVSTAKGKTHDHYPSGRYRPPPWHDWRFS [SEQ ID NO: 29],1.052
9,PASAAKGKTHDHWPSGRHRDPPWHDWRGS [SEQ ID NO: 353],−0.2788
10,PASAAKGKWHDHNPSGRMRDPPWHDWWGS [SEQ ID NO: 327],0.4162
11,PASGAKGKTHDHYPSGRWRDSGWHDWRFS [SEQ ID NO: 313],0.5536
12,PASGAKTKWHDHNPSGRHRDPPWHDWRVS [SEQ ID NO: 328],0.3967
13,PLSAAKGKWHDHYWSGRMRDPPWHDWRVS [SEQ ID NO: 260],0.8986
14,PLSAAKTKTHDHNWSGRYRPPPWHDWRAR [SEQ ID NO: 282],0.7514
15,PLSAAKTKWHDHYGGGRMRPPPWHDWRFS [SEQ ID NO: 265],0.8534
16,PSSAAKGKTHDHYPGGRYRDPGWHDWRGR [SEQ ID NO: 343],0.2141
17,PSSAAKGKTHDHYPGGRYRPPPWHDWRVS [SEQ ID NO: 264],0.8772
18,PTSAAKGKTHDHYPGGRYRDPPWHDWRAS [SEQ ID NO: 356],−0.5055
19,PVSAAKGKTHDHWPGGRMRDPPWHDWRAS [SEQ ID NO: 329],0.3768
20,PVSAAKGKWHDHNWSGRMRPPPWHDWRAR [SEQ ID NO: 18],1.169
21,PVSAAKGKWHDHYPSGRWRDPPWHDWRAS [SEQ ID NO: 321],0.4882
22,SASAAKGKTHDHWGGGRHRDPPWHDWRFS [SEQ ID NO: 341],0.2746
23,SPSGAKGKTHDHYPSGRMRPPPWHDWRFS [SEQ ID NO: 261],0.8871

row,Sequence,mean_ES_IFN-γ
1,SPSGAKTKWHDHNPGGRMRPPPWHDWRAR [SEQ ID NO: 324],0.4459
2,SSSGAKGKWHDHNPSGRWRDPGWHDWRVR [SEQ ID NO: 325],0.4435
3,SSSGAKGKWHDHYGGGRHRDPPWHDWRGS [SEQ ID NO: 344],0.1326
4,SVSAAKGKTHDHYPSGRWRDPPWHDWRAS [SEQ ID NO: 300],0.645
5,VGSAAKTKTHDHYGGGRMRPPPWHDWRFS [SEQ ID NO: 331],0.3468
6,VGSGAKGKTHDHNGSGRYRPPPWHDWRFS [SEQ ID NO: 299],0.6497
7,VHSAAKTKTHDHWGSGRMRDPPWHDWRGS [SEQ ID NO: 346],0.04292
8,VLSTAKGKTHDHYPGGRMRPPPWHDWRAR [SEQ ID NO: 257],0.918
9,VPSAAKGKWHDHNGSGRMRDPGWHDWRFS [SEQ ID NO: 348],−0.009349
10,VPSAAKGKWHDHNPGGRHRPPPWHDWRAS [SEQ ID NO: 291],0.7119
11,VSSAAKGKTHDHNPSGRMRPPPWHDWRFS [SEQ ID NO: 322],0.4538
12,VSSAAKGKTHDHYPSGRMRPPPWHDWRGR [SEQ ID NO: 283],0.7475
13,VSSGAKGKTHDHYPSGRMRPPPWHDWRFS [SEQ ID NO: 297],0.6662
14,VSSGAKTKTHDHNPSGRMRDFKWHDWRGS [SEQ ID NO: 350],−0.1153
15,VTSAAKGKTHDHYPSGRMRPPPWHDWRFS [SEQ ID NO: 312],0.5616
16,VTSAAKGKTHDHYPSGRYRPPPWHDWRGR [SEQ ID NO: 310],0.5718
17,VTSAAKGKWHDHWPSGRYRDPPWHDWRVS [SEQ ID NO: 308],0.588
18,VTSAAKTKWHDHNGSGRYRDPGWHDWRGS [SEQ ID NO: 347],0.01499
19,VTSTAKGKTHDHNWSGRYRPPPWHDWRAR [SEQ ID NO: 9],1.28
20,VVSGAKGKTHDHNWGGRYRPPPWHDWRGS [SEQ ID NO: 296],0.6729
21,VVSTAKGKTHDHYPGGRMRPPPWHDWRAR [SEQ ID NO: 251],0.952
22,VVSTAKGKTHDHYWSGRYRPPPWHDWRAR [SEQ ID NO: 259],0.9101
23,WASAAKGKTHDHYGGGRMRPPPWHDWRAR [SEQ ID NO: 323],0.4505

row,Sequence,mean_ES_IFN-γ
1,WASGAKGKTHDHNPSGRWRDPGWHDWRGS [SEQ ID NO: 330],0.3705
2,WASGAKGKTHDHWPGGRHRDPPWHDWRVS [SEQ ID NO: 271],0.8431
3,WASGAKGKTHDHYPSGRMRPPPWHDWRWS [SEQ ID NO: 278],0.7784
4,WASGAKGKWHDHYGGGRYRDPGWHDWRGS [SEQ ID NO: 20],1.135
5,WASGAKGKWHDHYGSGRYRPPPWHDWRGS [SEQ ID NO: 290],0.712
6,WGSAAKGKTHDHNWSGRYRPPPWHDWRVS [SEQ ID NO: 302],0.6264
7,WGSAAKGKTHDHWPSGRHRDPPWHDWRVR [SEQ ID NO: 31],1.044
8,WGSAAKGKTHDHWPSGRMRDPPWHDWRVS [SEQ ID NO: 256],0.9254
9,WGSAAKGKTHDHWPSGRYRDPKWHDWRVS [SEQ ID NO: 21],1.134
10,WGSAAKGKTHDHYGSGRYRDPPWHDWRAR [SEQ ID NO: 32],1.038
11,WGSAAKGKWHDHYPSGRMRPPPWHDWRVR [SEQ ID NO: 275],0.8178
12,WGSGAKGKTHDHNGGGRMRPPPWHDWRAS [SEQ ID NO: 334],0.3217
13,WGSGAKGKTHDHWGSGRWRDPGWHDWRGS [SEQ ID NO: 5],1.324
14,WGSGAKTKWHDHNWSGRMRPPPWHDWRFS [SEQ ID NO: 354],−0.315
15,WLSAAKAKTHDHWGSGRHRPPPWHDWRGS [SEQ ID NO: 315],0.5302
16,WLSAAKGKTHDHWGSGRWRDPPWHDWRFS [SEQ ID NO: 345],0.06564
17,WLSTAKGKTHDHNWSGRYRPPPWHDWRVR [SEQ ID NO: 307],0.6005
18,WPSAAKGKTHDHNPSGRMRPPPWHDWRFS [SEQ ID NO: 26],1.078
19,WPSAAKGKTHDHYPGGRYRPPPWHDWRVR [SEQ ID NO: 295],0.6782
20,WPSGAKGKWHDHYPGGRMRPPPWHDWRFS [SEQ ID NO: 4],1.351
21,WPSGAKTKTHDHNWGGRMRDPPWHDWRGS [SEQ ID NO: 339],0.2814
22,WPSTAKGKTHDHYGGGRMRPPPWHDWRAR [SEQ ID NO: 318],0.5137

# From US20230272016A1, “PEPTIDES FOR IMMUNOTHERAPY” (Second Genome, Inc., priority 2020, published 2023)
